From ChEMBL document CHEMBL1149976, “Novel, extended transition state mimic in HIV-1 protease inhibitors with peripheral C-2-symmetry” (Bioorg Med Chem Lett, 1994)
The source made the active and inactive calls. No cut-off for these calls is given here.

Assays:
[1] = target: Human immunodeficiency virus type 1 protease (Human immunodeficiency virus 1) (UniProt Q72874); experiment: Binding affinity against HIV-1 protease was determined at a concentration of 12.5 uM; Not active
[2] = test system: MT4; experiment: Inhibition of HIV-1 induced cytopathic effect in HTLV1 transformed MT-4 cells.; format: functional; conditions: Homo sapiens, read-out: ED50 (the source's name)
[3] = target: Human immunodeficiency virus type 1 protease (Human immunodeficiency virus 1, UniProt Q72874); experiment: Binding affinity for HIV-1 protease
[4] = target: Human immunodeficiency virus type 1 protease (Human immunodeficiency virus 1) (UniProt Q72874); experiment: Percentage inhibition against HIV-1 protease was determined at a concentration of 12.5 uM
[5] = target: Human immunodeficiency virus type 1 protease (Human immunodeficiency virus 1) (UniProt Q72874); experiment: Binding affinity against HIV-1 protease was determined at a concentration 12.5 uM; not active

Structure (SMILES) | inhibition [1] | EC50 [2] [nM] | Ki [3] [nM] | inhibition [4] [%] | inhibition [5]
COC(=O)[C@H]([C@@H](O)[C@H](Cc1ccccc1)NC(=O)[C@@H](NC(=O)OCc1ccccc1)C(C)C)[C@H](Cc1ccccc1)NC(=O)OC(C)(C)C | inactive | – | – | – | –
CC(C)(C)[C@H](NC(=O)CCc1nc2ccccc2[nH]1)C(=O)N[C@@H](Cc1ccccc1)[C@H](O)[C@@H](CO)[C@H](Cc1ccccc1)NC(=O)[C@@H](NC(=O)CCc1nc2ccccc2[nH]1)C(C)(C)C | – | > 10000 | 160 | – | –
CC(C)[C@H](NC(=O)OCc1ccccc1)C(=O)N[C@@H](Cc1ccccc1)[C@H](O)[C@@H](CO)[C@H](Cc1ccccc1)NC(=O)OC(C)(C)C | – | > 10000 | 3700 | – | –
CC(C)(C)[C@H](NC(=O)c1nc2ccccc2[nH]1)C(=O)N[C@@H](Cc1ccccc1)[C@H](O)[C@@H](CO)[C@H](Cc1ccccc1)NC(=O)[C@@H](NC(=O)c1nc2ccccc2[nH]1)C(C)(C)C | – | > 10000 | – | 42 | –
CC(C)(C)[C@H](NC(=O)OCc1nc2ccccc2[nH]1)C(=O)N[C@@H](Cc1ccccc1)[C@H](O)[C@@H](CO)[C@H](Cc1ccccc1)NC(=O)[C@@H](NC(=O)OCc1nc2ccccc2[nH]1)C(C)(C)C | – | 4700 | 29 | – | –
CC(C)(C)[C@H](N)C(=O)N[C@@H](Cc1ccccc1)[C@H](O)[C@@H](CO)[C@H](Cc1ccccc1)NC(=O)[C@@H](N)C(C)(C)C | – | > 10000 | – | 8 | –
CC(C)(C)[C@H](NC(=O)CCc1nc2ccccc2[nH]1)C(=O)N[C@@H](Cc1ccccc1)[C@@H](O)[C@H](CO)[C@H](Cc1ccccc1)NC(=O)[C@@H](NC(=O)CCc1nc2ccccc2[nH]1)C(C)(C)C | – | 520 | 9 | – | –
CC(C)[C@H](NC(=O)OCc1ccccc1)C(=O)N[C@@H](Cc1ccccc1)[C@@H](O)[C@H](C(=O)O)[C@H](Cc1ccccc1)NC(=O)OC(C)(C)C | – | – | – | 18 | –
CC(C)(C)[C@H](NC(=O)OCc1nc2ccccc2[nH]1)C(=O)N[C@@H](Cc1ccccc1)[C@@H](O)[C@H](CO)[C@H](Cc1ccccc1)NC(=O)[C@@H](NC(=O)OCc1nc2ccccc2[nH]1)C(C)(C)C | – | 500 | 13 | – | –
CC(C)[C@H](NC(=O)OCc1ccccc1)C(=O)N[C@@H](Cc1ccccc1)[C@H](O)[C@@H](C(=O)O)[C@H](Cc1ccccc1)NC(=O)OC(C)(C)C | – | – | – | – | inactive
CC(C)(C)C(NC(=O)OCc1ccccc1)C(=O)N[C@@H](Cc1ccccc1)[C@H](CO)[C@@H](O)[C@H](Cc1ccccc1)NC(=O)[C@@H](NC(=O)OCc1ccccc1)C(C)(C)C (single isomer, unassigned; diastereomer B) | – | > 10000 | 255 | – | –
CC(C)(C)[C@H](NC(=O)c1nc2ccccc2[nH]1)C(=O)N[C@@H](Cc1ccccc1)[C@@H](O)[C@H](CO)[C@H](Cc1ccccc1)NC(=O)[C@@H](NC(=O)c1nc2ccccc2[nH]1)C(C)(C)C | – | > 10000 | – | 31 | –
CC(C)C(NC(=O)OCc1ccccc1)C(=O)N[C@@H](Cc1ccccc1)[C@@H](C(=O)O)[C@H](O)[C@H](Cc1ccccc1)NC(=O)[C@@H](NC(=O)OCc1ccccc1)C(C)C (stereo partly specified) | – | – | 430 | – | –
CC(C)[C@H](NC(=O)OCc1ccccc1)C(=O)N[C@@H](Cc1ccccc1)[C@H](O)[C@@H](CO)[C@H](Cc1ccccc1)NC(=O)C(NC(=O)OCc1ccccc1)C(C)(C)C (single isomer, unassigned; diastereomer B) | – | > 10000 | – | 39 | –
CC(C)(C)C(NC(=O)OCc1ccccc1)C(=O)N[C@@H](Cc1ccccc1)[C@@H](CO)[C@H](O)[C@H](Cc1ccccc1)NC(=O)[C@@H](NC(=O)OCc1ccccc1)C(C)(C)C (single isomer, unassigned; diastereomer A) | – | 1600 | 13 | – | –
COC(=O)[C@@H]([C@H](O)[C@H](Cc1ccccc1)NC(=O)[C@@H](NC(=O)OCc1ccccc1)C(C)C)[C@H](Cc1ccccc1)NC(=O)OC(C)(C)C | – | – | – | 20 | –
CC(C)C(NC(=O)OCc1ccccc1)C(=O)N[C@@H](Cc1ccccc1)[C@H](CO)[C@@H](O)[C@H](Cc1ccccc1)NC(=O)[C@@H](NC(=O)OCc1ccccc1)C(C)C (single isomer, unassigned; diastereomer B) | – | > 10000 | 510 | – | –
CC(C)[C@H](NC(=O)OCc1ccccc1)C(=O)N[C@@H](Cc1ccccc1)[C@@H](O)[C@H](CO)[C@H](Cc1ccccc1)NC(=O)C(NC(=O)OCc1ccccc1)C(C)(C)C (stereo partly specified) | – | 2500 | 16 | – | –
CC(C)(C)[C@H](N)C(=O)N[C@@H](Cc1ccccc1)[C@@H](O)[C@H](CO)[C@H](Cc1ccccc1)NC(=O)[C@@H](N)C(C)(C)C | – | > 10000 | – | 22 | –
CC(C)[C@H](NC(=O)OCc1ccccc1)C(=O)N[C@@H](Cc1ccccc1)[C@@H](O)[C@H](CO)[C@H](Cc1ccccc1)NC(=O)[C@H](CC(N)=O)NC(=O)OCc1ccccc1 | – | > 10000 | 340 | – | –
CC(C)C(NC(=O)OCc1ccccc1)C(=O)N[C@@H](Cc1ccccc1)[C@@H](CO)[C@H](O)[C@H](Cc1ccccc1)NC(=O)[C@@H](NC(=O)OCc1ccccc1)C(C)C (single isomer, unassigned; diastereomer A) | – | 3700 | 27 | – | –
CC(C)[C@H](NC(=O)OCc1ccccc1)C(=O)N[C@@H](Cc1ccccc1)[C@@H](O)[C@@H](CO)[C@H](Cc1ccccc1)NC(=O)[C@@H](CC(N)=O)NC(=O)OCc1ccccc1 | – | > 10000 | – | 32 | –
CC(C)[C@H](NC(=O)OCc1ccccc1)C(=O)N[C@@H](Cc1ccccc1)[C@@H](O)[C@H](CO)[C@H](Cc1ccccc1)NC(=O)OC(C)(C)C | – | > 10000 | 290 | – | –
